Assays:
Assay type in all cases: physicochemical
[1] = Thermal gravimetric analysis (TGA) of water/solvent content; conditions: heated at 10° C./min from 25° C., dry nitrogen purge
Description: Approximately 1-5 mg of sample was added to a tared Platinum cup which was then placed in the weighting position of a Perkin-Elmer Pyris 1 TGA analyzer. The furnace was raised and the starting weight of the sample was recorded. The heating program was then started. The sample was heated at a rate of 10° C./min, starting at 25° C. and ending at 90-300° C., depending on where a constant temperature could be attained. The sample was purged with dry nitrogen gas during analysis.
A sample of crystal modification IV was analyzed with XRPD and the water content was checked with TGA. The weight loss for crystal modification IV was initially slow, but accelerated at about 50° C. and was finalized at about 80° C. A weight loss of 2.7% w/w was observed.
A sample of crystal modification I was analyzed with XRPD and the water content was checked with TGA. […] A weight loss of 0.99% w/w was observed.
The solvent content of a sample of EtOH-1 was analyzed with TGA.

[2] = Storage stability of the crystal modification (XRPD)
Description: Dry samples were lightly ground in an agate mortar, if needed, and were then smeared out on a sample holder. Slurry samples were added to the sample holder as wet and were analyzed both wet and dry. XRPD data were collected on a cut Silicon Zero Background Holder (ZBH) or on a Porous Alumina Filter Sample Holder, using a PANalytical X'Pert Pro diffractometer, equipped with an X'celerator or a PIXcel detector. The sample was spun during analysis and Cu-radiation was used. The following experimental settings were used:
A batch of crystal modification IV was stored in a closed glass vial and kept at 20° C. and between 20 and 60% RH for 17 months.

[3] = Relative thermodynamic stability of crystal modifications; conditions: normal conditions (21° C., 10-30% relative humidity)
[4] = Dynamic Vapor Sorption (DVS) analysis; conditions: after drying with dry nitrogen, two sorption-desorption cycles, 0 to 10% RH
Description: Approximately 15-20 mg of the sample was weighed into a quartz receptacle, which was then released of static electricity by exposing it to a radioactive source. The quartz receptacle was then positioned in a Surface Measurements System Ltd DVS Advantage instrument. The sample was dried with dry nitrogen gas until a dm/dt below 0.002% per minute was reached. The instrument was running in dm/dt-mode using a dm/dt window of 5 minutes, a minimum stage time of 10 minutes and a maximum stage time of 360 minutes. The sample was then subjected to two consecutive sorption-desorption cycles, using d/m/dt-mode parameters above, and each cycle running from 0-95-0% relative humidity (% RH). One cycle consisted of 20 steps, those between 0-90% RH were taken in 10% RH each.
A sample of crystal modification IV was weighed into the quartz scale pan of a Scientific Instruments Dynamic Vapor Sorption instrument. The sample was released of static electricity by moving a radioactive isotope over it and was then put into the instrument. The sample was dried by flushing dry nitrogen gas until the weight was constant and then two consecutive sorption-desorption cycles were run. Crystal modification IV absorbs approximately 2.45% water between 0 and 10% RH, and an additional 0.36 to 0.37% water between 10 and 60% RH. […]

Row | SMILES | TGA weight loss [1] | crystalline form by XRPD after storage ([2]; closed glass vial, 20° C., between 20 and 60% RH, 17 months) | time of storage for which found stable ([2]; such as under ambient, open conditions) | thermodynamic stability compared with crystal modification I and other crystal modifications of elobixibat [3] | water absorbed between 0 and 10% RH [4]
1 | CCCCC1(CCCC)CN(c2ccccc2)c2cc(SC)c(OCC(=O)N[C@@H](C(=O)NCC(=O)O)c3ccccc3)cc2S(=O)(=O)C1 [EtOH-1, N-{(2R)-2-[({[3,3-dibutyl-7-(methyl-thio)-1,1-dioxido-5-phenyl-2,3,4,5-tetrahydro-1,5-benzothiazepin-8-yl]oxy}acetyl)amino]-2-phenylethanolyl}glycine] | approximately 6 % w/w |  |  |  | 
2 | CCCCC1(CCCC)CN(c2ccccc2)c2cc(SC)c(OCC(=O)N[C@@H](C(=O)NCC(=O)O)c3ccccc3)cc2S(=O)(=O)C1 [crystal modification IV, N-{(2R)-2-[({[3,3-dibutyl-7-(methyl-thio)-1,1-dioxido-5-phenyl-2,3,4,5-tetrahydro-1,5-benzothiazepin-8-yl]oxy}acetyl)amino]-2-phenylethanolyl}glycine] | 2.7 % w/w | unchanged | ≥ 17 months | more thermodynamically stable | approximately 2.45%
3 | CCCCC1(CCCC)CN(c2ccccc2)c2cc(SC)c(OCC(=O)N[C@@H](C(=O)NCC(=O)O)c3ccccc3)cc2S(=O)(=O)C1 [crystal modification I, N-{(2R)-2-[({[3,3-dibutyl-7-(methyl-thio)-1,1-dioxido-5-phenyl-2,3,4,5-tetrahydro-1,5-benzothiazepin-8-yl]oxy}acetyl)amino]-2-phenylethanolyl}glycine] | 0.99 % w/w |  |  |  | approximately 0.66%
